Data from patent US9376425B2, “Heterocyclic compounds as MDM2 inhibitors for the treatment of cancer” (AMGEN INC., priority 2011, dated 2016).

Biological target: T1, human MDM2 (GST-hMDM2 1-188), interaction with biotinylated-p53 (1-83) (Homo sapiens, UniProt Q00987)
T1 construct: Amino acid residues 1-188 of human MDM2 were expressed; made in house; host or cells: Escherichia coli
Assay: improved HTRF assay (HTRF2 assay), inhibition of HDM2-p53 interaction
Format: binding
Settings: 0.2 nM GST-hMDM2, 0.5 nM biotinylated-p53, 100 mM KF
Procedure, shortened: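 Time-resolved fluorescence (HTRF) read after >4 h equilibration with SA-XLent/anti-GST cryptate/KF detection reagents. Reaction: compound plus GST-hMDM2 for 20 min at room temperature, then E. coli-expressed biotinylated p53 residues 1-83 for 60 min, 2% DMSO final. Inhibition expressed versus nutlin-3.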

T1 sequence (Q00987 1-188): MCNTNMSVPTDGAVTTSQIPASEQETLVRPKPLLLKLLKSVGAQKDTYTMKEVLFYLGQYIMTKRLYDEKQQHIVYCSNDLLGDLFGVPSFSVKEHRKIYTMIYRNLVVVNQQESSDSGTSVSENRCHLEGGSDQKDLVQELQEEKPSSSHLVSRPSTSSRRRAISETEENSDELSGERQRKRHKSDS

| Compound | IC50 [nM] |
| --- | --- |
| CC(C)(C)S(=O)(=O)C[C@H](C1CC1)N1C(=O)[C@@H](CC(=O)O)O[C@H](c2ccc(F)c(Cl)c2)[C@H]1c1ccc(Cl)cc1 (single isomer, unassigned) [Example 320, 2-((2R,5R,6R)-4-((S)-2-(tert-Butylsulfonyl)-1-cyclopropylethyl)-6-(3-chloro-4-fluorophenyl)-5-(4-chlorophenyl)-3-oxomorpholin-2-yl)acetic acid or 2-((2S,5R,6R)-4-((S)-2-(tert-butylsulfonyl)-1-cyclopropylethyl)-6-(3-chloro-4-fluorophenyl)-5-(4-chlorophenyl)-3-oxomorpholin-2-yl)acetic acid] | 3 |
| CC(C)(C)S(=O)(=O)C[C@H](C1CC1)N1C(=O)[C@@H](CC(=O)O)O[C@H](c2ccc(F)c(Cl)c2)[C@H]1c1ccc(Cl)cc1 (single isomer, unassigned) [Example 321, 2-((2R,5R,6R)-4-((S)-2-(tert-Butylsulfonyl)-1-cyclopropylethyl)-6-(3-chloro-4-fluorophenyl)-5-(4-chlorophenyl)-3-oxomorpholin-2-yl)acetic acid or 2-((2S,5R,6R)-4-((S)-2-(tert-butylsulfonyl)-1-cyclopropylethyl)-6-(3-chloro-4-fluorophenyl)-5-(4-chlorophenyl)-3-oxomorpholin-2-yl)acetic acid] | 2 |
| CC(C)(C)SC[C@H](C1CC1)N1C(=O)[C@@H](CC(=O)O)O[C@H](c2ccc(Br)c(Cl)c2)[C@H]1c1ccc(Cl)cc1 (single isomer, unassigned) [Example 322, 2-((2R,5R,6R)-6-(4-Bromo-3-chlorophenyl)-4-((S)-2-(tert-butylthio)-1-cyclopropylethyl)-5-(4-chlorophenyl)-3-oxomorpholin-2-yl)acetic acid or 2-((2S,5R,6R)-6-(4-bromo-3-chlorophenyl)-4-((S)-2-(tert-butylthio)-1-cyclopropylethyl)-5-(4-chlorophenyl)-3-oxomorpholin-2-yl)acetic acid] | 51 |
| CC(C)(C)SC[C@H](C1CC1)N1C(=O)[C@@H](CC(=O)O)O[C@H](c2ccc(Br)c(Cl)c2)[C@H]1c1ccc(Cl)cc1 (single isomer, unassigned) [Example 323, 2-((2R,5R,6R)-6-(4-Bromo-3-chlorophenyl)-4-((S)-2-(tert-butylthio)-1-cyclopropylethyl)-5-(4-chlorophenyl)-3-oxomorpholin-2-yl)acetic acid or 2-((2S,5R,6R)-6-(4-bromo-3-chlorophenyl)-4-((S)-2-(tert-butylthio)-1-cyclopropylethyl)-5-(4-chlorophenyl)-3-oxomorpholin-2-yl)acetic acid] | 16 |
| CC(C)(C)S(=O)(=O)C[C@H](C1CC1)N1C(=O)[C@@H](CC(=O)O)O[C@H](c2ccc(C#N)c(Cl)c2)[C@H]1c1ccc(Cl)cc1 (single isomer, unassigned) [Example 324, 2-((2R,5R,6R)-4-((S)-2-(tert-Butylsulfonyl)-1-cyclopropylethyl)-6-(3-chloro-4-cyanophenyl)-5-(4-chlorophenyl)-3-oxomorpholin-2-yl)acetic acid or 2-((2S,5R,6R)-4-((S)-2-(tert-butylsulfonyl)-1-cyclopropylethyl)-6-(3-chloro-4-cyanophenyl)-5-(4-chlorophenyl)-3-oxomorpholin-2-yl)acetic acid] | 7 |
| CC(C)(C)S(=O)(=O)C[C@H](C1CC1)N1C(=O)[C@@H](CC(=O)O)O[C@H](c2ccc(C#N)c(Cl)c2)[C@H]1c1ccc(Cl)cc1 (single isomer, unassigned) [Example 325, 2-((2R,5R,6R)-4-((S)-2-(tert-Butylsulfonyl)-1-cyclopropylethyl)-6-(3-chloro-4-cyanophenyl)-5-(4-chlorophenyl)-3-oxomorpholin-2-yl)acetic acid or 2-((2S,5R,6R)-4-((S)-2-(tert-butylsulfonyl)-1-cyclopropylethyl)-6-(3-chloro-4-cyanophenyl)-5-(4-chlorophenyl)-3-oxomorpholin-2-yl)acetic acid] | 4 |
